Test results as given in patent US20240139277A1, “DRUG CONTAINING ACTIVE SULFUR COMPOUND AS ITS MAIN COMPONENT” (priority 2020, published 2024).
“Also recorded” adds a separate entry of the source.

Tests used:
bronchial asthma model = test: bronchial asthma model; type: in vivo; details: mice
[1] = test system: porcine pancreas elastase (PPE) induced emphysema models; test: elastase-induced COPD / emphysema model; type: in vivo, CARS2-deficient B6 mice
Procedure: FIG. 4 is an example indicating the therapeutic effect of the GSSSG on elastase-induced COPD; and airway administration of GSSSG (50 μL, 1 mM) to porcine pancreas elastase (PPE) induced emphysema models of CARS2-deficient B6 mice^*1 was performed three times, that is, six hours before, two days later, and four days later, and an inflammatory cell count in a bronchial alveolar lavage fluid (BALF) five days after the PPE administration was measured and emphysema lesions were analyzed by using CT. The inflammatory cell count was measured in the same manner as in the example of FIG. 3. […] 2017.

pulmonary fibrosis model = test: pulmonary fibrosis model; type: in vivo; details: mice
[2] = test system: SARS-CoV-2 JPN/TY/WK-521 strain; test: anti-SARS-CoV-2 action test in VeroE6/TMPRSS2 cells, quantitative PCR; type: cell-based; details: GSSSG 10 μM, 100 μM, 300 μM vs no GSSSG; MOI 0.01; FIG. 6
[3] = molecular target: T1, papain-like protease (PLpro) (Severe acute respiratory syndrome coronavirus 2, UniProt P0DTC1); test: SARS-CoV-2 protease inhibition test, papain-like protease; type: biochemical; details: 0.3 mM, 37 degrees Celsius, 15 minutes, MCA fluorogenic substrate, compared to control (GSSSG(−)); FIG. 5
main protease (3CLpro) [4] = molecular target: T2, main protease (3CLpro) (Severe acute respiratory syndrome coronavirus 2, UniProt P0DTC1); test: SARS-CoV-2 protease inhibition test, main protease; type: biochemical; details: 0.3 mM, 37 degrees Celsius, 15 minutes, MCA fluorogenic substrate, compared to control (GSSSG(−)); FIG. 5
[5] = test system: influenza virus PR8 strain (A/PR/8/34 (H1N1)); test: anti-influenza effect in mice (influenza A virus pneumonia); type: in vivo, B6 mice; details: nasal administration 50 μL, 1 mM, six hours before virus inoculation; vs PBS group; FIG. 3
Procedure: An influenza virus PR8 strain (A/PR/8/34 (H1N1), Akaike T. et al, Journal of Infectious Diseases, 170, 1023-1026, 1994) (2000 pfu/ml (PBS)) was administered to each of a plurality of B6 mice (ten 8-week-old mice for each group). This administration was performed by intratracheal administration of a virus solution (PBS 40 μL) under anesthesia. Furthermore, nasal administration of GSSSG (50 μL,1 mM) was performed under anesthesia six hours before the virus inoculation and then a survival rate of the mice, their lung damage (14 days after infection), and various kinds of inflammatory cell counts (three days after infection) were measured chronologically and analyzed. A group to which the GSSSG was administered was compared with a control group (PBS-administered group/no GSSG administered) concerning the survival rate, whether there is any lung damage or not, and the various kinds of inflammatory cell counts. Regarding the lung damage, pneumonia images were evaluated by means of HE staining. Regarding the measurement of the inflammatory cell counts, bronchoalveolar lavage (BAL) was performed by using PBS and the number of cells in BAL and cytokine were analyzed.

[6] = test system: novel coronavirus (SARS-CoV-2); details: reported in NPL 2 and NPL 3; cited from earlier work
main protease (3CLpro) [7] = molecular target: T2, main protease (3CLpro); details: reported in literature; cited from earlier work
[8] = molecular target: T1, papain-like protease (PLpro); details: reported in literature; cited from earlier work

| SMILES | therapeutic effect in bronchial asthma model (bronchial asthma model) | inflammatory cell count in bronchial alveolar lavage fluid (BALF) ([1]; airway administration 50 μL, 1 mM, three times, five days after PPE administration, vs GSSSG(−), FIG. 4) | emphysema lesions by CT ([1]; airway administration 50 μL, 1 mM, three times, vs GSSSG(−), FIG. 4) | therapeutic effect in COPD model ([1]; mice) | therapeutic effect in pulmonary fibrosis model (pulmonary fibrosis model) | RNA viral load [2] | inhibitory activity on protease activity (PLpro) [3] | inhibitory activity on protease activity (3CLpro) (main protease (3CLpro) [4]) | effect on influenza A virus pneumonia [5] | proliferation suppression effect on SARS-CoV-2 [6] | inhibitory activity on 3CLpro as reported in NPL (main protease (3CLpro) [7]) | inhibitory activity on PLpro as reported in NPL [8] |
| --- | --- | --- | --- | --- | --- | --- | --- | --- | --- | --- | --- | --- |
| N[C@@H](CCC(=O)N[C@@H](CSSSC[C@H](NC(=O)CC[C@H](N)C(=O)O)C(=O)NCC(=O)O)C(=O)NCC(=O)O)C(=O)O [GSSSG, glutathione trisulfide] | therapeutic effect of the GSSSG was also confirmed; also recorded: alleviates respiratory tract and lung damage and pulmonary fibrosis | small as compared to that of the no GSSSG-administered group | remission of the emphysema has been achieved | therapeutic effect of the GSSSG was also confirmed; also recorded: alleviates respiratory tract and lung damage and pulmonary fibrosis | therapeutic effect of the GSSSG was also confirmed; also recorded: alleviates respiratory tract and lung damage and pulmonary fibrosis | RNA viral load decreases along with an increase in the dosage | same level of strong inhibitory activity | same level of strong inhibitory activity | preventive and therapeutic effects; also recorded: improving severe pneumonia |  |  |  |
| O=c1c2ccccc2[se]n1-c1ccccc1 [Ebselen, 2-Phenyl-1,2-benzoisoselenazol-3(2H)-one] |  |  |  |  |  |  |  |  |  | conspicuous proliferation suppression effect | strong inhibitory activity | strong inhibitory activity |
